One experiment has as its system Wistar-Han rats. Kind of experiment: Inhibition of carrageenan edema. It is filed as in vivo. The following applies: dose 100 mg/kg; for inhibition in vivo at 100 mg/kg: Rattus norvegicus, read-out: CE: inhibition of carrageenan-induced edema, % of inh.
The next experiment deals with rats. Kind of experiment: Inhibition of carrageenan-induced pleuritis in rats. It is filed as in vivo. The following applies: dose 100 mg/kg, oral, values with mark n: p > 0.05; for inhibition in vivo at 100 mg/kg: Rattus norvegicus, po, 4 h. In outline:
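Rats given test drug as single oral dose 1 h before intrapleural 0.5% carrageenan (1 ml) under light ether anaesthesia. Pleural exudate collected 4 h later; volume, cellularity and total cell count measured.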

The test system of experiment [1] is bronchospasm induced by LTD4. Kind of experiment: Inhibition of bronchospasm induced by LTD4. It is filed as in vivo. Here is the method: (§1) Inhibition of Allergic Bronchospasm Induced by […] (Compound 48/80 or Ovalbumin, Respectively)
(§2) The modified method of Kreutner W. et al (Krelutner W. et al.: Agents Actions 28, 253 (1989)) was used. Bronchoconstrictioin was induced by intravenous injection of 1 μg/kg LTD4 (3 mg/kg of compound […] or 0.35 mg/kg of ovalbumin, respectively). In the case of oval-bumin, the animals were senzitized by intraperitoneal injection of ovalbumin (100 mg/kg) 14 days before induction. The compounds tested were applied 5 min before the administration of the inductor; the vehiculum used for the application of compound tested was administered to the control group of animals. The tracheal pressure was determined in the intervals of 2, 4 and 10 minutes after induction. The effect was expressed in percentage inhibition of bronchospasm relative to the untreated control.

Experiment [2] has as its system LTB4 production in rat polymorphonuclear cells. Kind of experiment: Ex vivo inhibition of LTB4 production (LTB4 biosynthesis). In kind it is cell-based. The following applies: for Inh. of LTB4 biosynth., %: at 30 μg (%/μg); for IC50: Rattus norvegicus, read-out: Inh. of LTB4 biosynth., IC50.
In experiment [3] the test system is peroxidation of lipids from the hepatic cells membranes. Kind of experiment: Antioxidant effect in vitro. It is filed as biochemical. The settings on record: at 100 μg. The text has this:
Antioxidant Effect in vitro
The end-product, malonic dialdehyde, was transformed to coloured complex with thiobarbituric acid and determined spectrophotometrically. The antioxidant effect was expressed in % of peroxidation inhibition in the presence of the compound tested in comparison to a control sample.

Another experiment addresses T1, LTD4 receptor (Cavia porcellus, UniProt Q2NNR5).
T1 construct: The membrane fraction was prepared from male guinea-pig lungs; from tissue; host or cells: male guinea-pig lung membranes
T1 sequence (Q2NNR5 1-340): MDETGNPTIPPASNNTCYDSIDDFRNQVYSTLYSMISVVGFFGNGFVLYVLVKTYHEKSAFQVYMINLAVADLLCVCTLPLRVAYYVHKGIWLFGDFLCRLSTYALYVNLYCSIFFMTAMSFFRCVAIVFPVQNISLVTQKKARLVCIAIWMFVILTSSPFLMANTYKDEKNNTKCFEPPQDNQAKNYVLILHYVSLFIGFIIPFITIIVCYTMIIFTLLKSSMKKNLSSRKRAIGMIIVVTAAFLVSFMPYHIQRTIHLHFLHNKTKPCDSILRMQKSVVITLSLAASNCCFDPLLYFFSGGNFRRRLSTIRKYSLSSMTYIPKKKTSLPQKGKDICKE
Kind of experiment: LTD4 receptor binding study. The settings on record: 3H-LTD4, guinea-pig lung membranes; for pIC50: read-out: Inh. of LTD4 rec. binding, IC50; for inhibition at 100 µM: read-out: Inh. of LTD4 rec. binding, %. In a few lines:
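Guinea-pig lung membranes (male animals) were incubated with 0.4 nM ³H-LTD4 for 60 min at 25 °C. Nonspecific binding was defined with 0.1 μM LTD4. Bound radioactivity was measured after filtration and washing.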

Experiment [4] has as its system bronchospasm induced by ovalbumin. As to the kind of experiment: Inhibition of bronchospasm induced by ovalbumin. It is filed as in vivo. How it is done:
as §1, §2

A further experiment addresses LTB4 receptor (Cavia porcellus, UniProt H0VYV8). As to the kind of experiment: LTB4 receptor binding study. The settings on record: 3H-LTB4, guinea-pig spleen membranes; for pIC50: read-out: Inh. of LTB4 rec. binding, IC50; for inhibition at 20 µM: read-out: Inh. of LTB4 rec. binding, %. In outline: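 Male guinea-pig spleen membranes (2 mg) incubated with 0.3 nM ^3H-LTB4 for 30 min at 25 °C; nonspecific binding defined with 0.1 μM LTB4. Bound ligand collected by GF/C filtration, counted by liquid scintillation to give specific binding.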

A further experiment concerns male mice. Kind of experiment: Inhibition of arachidonic acid-induced ear inflammation in mice. It is filed as in vivo. The settings on record: for inhibition in vivo at 200 mg/kg: Mus musculus, po, 1 h. In outline:
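Compounds given orally 1 h before ear inflammation was induced in male mice with 20 µl arachidonic acid in acetone (100 mg/ml). Animals killed 1 h after induction. Ear hyperemia and ear-lobe weight assessed against the vehicle-treated contralateral ear.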

In experiment [5] the test system is bronchospasm induced by histamine liberator 48/80. Kind of experiment: Inhibition of bronchospasm induced by histamine liberator 48/80. In kind it is in vivo. The following applies: dose 100 mg/kg. How it is done:
as §1, §2

The mark [6] stands for this setting: read-out: Experimental pleuritis, A: volume of exudate in pleural cavity, % of inh.
[7] abbreviates: read-out: Experimental pleuritis, B: number of cells, % of inh.
The mark [8] stands for this setting: read-out: Experimental pleuritis, C: cellularity in a volume unit, % of inh.
[9] abbreviates: values with mark n: p > 0.05, read-out: Ear edema, D: edema of ear lobe, % of inh.
Setting [10] is: values with mark n: p > 0.05, read-out: Ear edema, E: hyperemia of ear lobe, % of inh.
Where [11] appears, read: dose 200 mg/kg, oral, values with mark n: p > 0.05, 200 mg/kg.

pIC50: −log10 of the molar value. ≈ marks a conversion by molar mass, not a printed value. Where two headings read alike, the source gives them in different places. Bounds are passed on as bounds.

Sequence of LTB4 receptor (H0VYV8 1-348): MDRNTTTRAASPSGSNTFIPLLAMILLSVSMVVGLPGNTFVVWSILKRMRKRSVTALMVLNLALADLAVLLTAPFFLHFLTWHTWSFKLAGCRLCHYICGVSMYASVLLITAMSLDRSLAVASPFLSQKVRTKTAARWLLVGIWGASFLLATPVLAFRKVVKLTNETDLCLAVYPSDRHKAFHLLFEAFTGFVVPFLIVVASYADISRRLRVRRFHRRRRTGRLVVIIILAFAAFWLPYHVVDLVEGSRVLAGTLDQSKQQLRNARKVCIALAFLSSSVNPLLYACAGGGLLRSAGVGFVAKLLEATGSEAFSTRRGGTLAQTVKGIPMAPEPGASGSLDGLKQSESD

For the compound `O=C(O)c1ccc(Sc2ccc(OCc3ccc4ccccc4n3)cc2)cc1` [Compound 16], the inhibition in vivo at 100 mg/kg is 25% in the experiment on Wistar-Han rats; 26% in the experiment with rats (setting [6]); 33% with rats (setting [7]); 11% with rats (setting [8]); 69% in experiment [1] (2 min); 70.8% in experiment [1] (4 min). Moreover, the inhibition in vivo at 100 mg/kg in experiment [4] (2 min) is 41%; in experiment [4] (4 min), 45%; in [4] (10 min), 63%. Also, the “Inh. of LTB4 biosynth., IC50” value in experiment [2] turned out to be 0.004 µg/mL. Also, in [2], the “Inh. of LTB4 biosynth., %” value was 98%. The “Antiox. effect, % of peroxidation inhibition” value in experiment [3] worked out at 13%. Further, the figures for the negative logarithm of the IC50 (pIC50) on LTD4 receptor and at LTB4 receptor were 7.62 and 4.04, respectively. For the same compound, the inhibition at 100 µM at LTD4 receptor is 100%. Further, on LTB4 receptor (at 20 μM), the “Inh. of LTB4 rec. binding, %” value stood at 19%. In addition, the inhibition in vivo at 200 mg/kg with male mice (setting [9]) stood at 27%; in the experiment on male mice (setting [10]), 3%.

As for `O=C(O)c1ccccc1Sc1cccc(OCCCN2CCN(Cc3ccc(Cl)cc3)CC2)c1` [Compound 12, Bis-hydrogenmaleate of 2-(3-(3-(1-(4-Chlorobenzyl)piperazin-4-yl)propoxy)-phenylsulfanyl)benzoic Acid], the inhibition in vivo at 100 mg/kg was 27% with Wistar-Han rats; 9% in experiment [1] (2 min); 41% in experiment [1] (4 min); 60% in experiment [1] (10 min); 71% in experiment [4] (2 min); 73% in experiment [4] (4 min). In [4] (10 min), this compound registered an inhibition in vivo at 100 mg/kg of 90%. Moreover, the 50% inhibitory concentration (IC50) in experiment [2] was less than 0.01 µg/mL. Further, the “Inh. of LTB4 biosynth., %” value in experiment [2] was 100%. Moreover, in experiment [3], the “Antiox. effect, % of peroxidation inhibition” value stood at 17%. Also, the pIC50 at LTD4 receptor is 4.80; at LTB4 receptor, 5.15. Besides, on LTD4 receptor, the inhibition at 100 µM turned out to be 69%. In addition, the entries for the “Inhibition of bronchospasm induced by histamine liberator 48/80” value in [5] (2 min), in [5] (4 min) and in experiment [5] (10 min) were 77%, 78% and 85%, respectively. On LTB4 receptor (at 20 μM), the inhibition at 20 µM stood at 85%. The figures for the inhibition in vivo at 200 mg/kg with male mice (setting [9]) and in the experiment on male mice (setting [10]) were 18% and 7%, respectively.

For `O=C(O)c1ccccc1Sc1ccc(OCCCN2CCN(Cc3ccc(Cl)cc3)CC2)cc1` [Compound 13, Dimethanesulfonate of 2-(4-(3-(1-(4-Chlorobenzyl)piperazin-4-yl)-propoxy)phenylsulfanyl)benzoic Acid], the inhibition in vivo at 100 mg/kg came out at 6% in [1] (2 min); 38% in experiment [1] (4 min); 54% in [1] (10 min); 46% in experiment [4] (2 min); 35% in experiment [4] (4 min); 51% in experiment [4] (10 min). Further, the IC50 in [2] was 7.6 µg/mL. Further, the “Inh. of LTB4 biosynth., %” value in experiment [2] turned out to be 100%. Moreover, on LTD4 receptor, the pIC50 was 4.39. Further, the inhibition at 100 µM on LTD4 receptor was determined as 79%. The “Inhibition of bronchospasm induced by histamine liberator 48/80” value in experiment [5] (2 min) was 84%; in experiment [5] (4 min) it was 82%; in experiment [5] (10 min), 69%. Moreover, the inhibition at 20 µM on LTB4 receptor (at 20 μM) was determined as 28%.

Consider `O=C(O)c1ccccc1Sc1cccc(OCc2ccc3cc(Cl)ccc3n2)c1` [Compound 20, 2-(3-(6-Chloroquinoline-2-ylmethoxy)phenylsulfanyl)benzoic Acid], for which the “CE: inhibition of carrageenan-induced edema, % of inh.” value in the experiment with Wistar-Han rats is listed as 25%. For the same compound, the inhibition in vivo at 100 mg/kg was determined as 15% in the experiment with rats (setting [6]); 19% in the experiment on rats (setting [7]); 6% in [1] (2 min); 38% in experiment [1] (4 min); 54% in experiment [1] (10 min); 66% in experiment [4] (2 min). The inhibition in vivo at 100 mg/kg in experiment [4] (4 min) was 72%; in [4] (10 min) it was 85%. The “Experimental pleuritis, C: cellularity in a volume unit, % of inh.” value in the experiment on rats (100 mg/kg) turned out to be 4%. In addition, in experiment [2], the “Inh. of LTB4 biosynth., IC50” value came to 0.035 µg/mL. Also, the “Inh. of LTB4 biosynth., %” value in experiment [2] is on record as 99%. Also, the “Antiox. effect, % of peroxidation inhibition” value in experiment [3] worked out at 1%. The pIC50 was 6.57 on LTD4 receptor and 4.50 on LTB4 receptor. In addition, the inhibition at 100 µM on LTD4 receptor was 100%. Moreover, the inhibition at 20 µM at LTB4 receptor (at 20 μM) was 31%. Moreover, the “Ear edema, D: edema of ear lobe, % of inh.” value in the experiment on male mice (setting [11]) was found to be 12%. Besides, the “Ear edema, E: hyperemia of ear lobe, % of inh.” value in the experiment with male mice (setting [11]) came out at 0%.

On to `O=C(O)c1ccccc1Sc1ccc(OCc2ccc3ccccc3n2)cc1` [Compound 19, 2-(4-(Quinoline-2-ylmethoxy)phenylsulfanyl)benzoic Acid], for which the inhibition in vivo at 100 mg/kg in the experiment with Wistar-Han rats came to 13%; in the experiment with rats (setting [6]), 17%; in the experiment with rats (setting [7]) it was 23%; with rats (setting [8]) it was 6%; in experiment [1] (2 min), 14%; in [1] (4 min), 33%. Further, the figures for the inhibition in vivo at 100 mg/kg in experiment [1] (10 min), in [4] (2 min) and in experiment [4] (4 min) were 43%, 21% and 27.3%, respectively. The half-inhibitory concentration (IC50) in experiment [2] stood at 0.13 µg/mL (≈ 0.336 µM). In addition, in experiment [2], the “Inh. of LTB4 biosynth., %” value amounted to 100%. Moreover, the “Antiox. effect, % of peroxidation inhibition” value in [3] is recorded as 10%. Besides, the negative-log IC50 (pIC50) on LTD4 receptor was 5.77; on LTB4 receptor, 4.15. Also, the inhibition at 100 µM on LTD4 receptor was found to be 100%. The inhibition at 20 µM at LTB4 receptor (at 20 μM) amounted to 34%. Besides, the inhibition in vivo at 200 mg/kg worked out at 20% in the experiment with male mice (setting [9]) and 5% in the experiment on male mice (setting [10]).

These data come from US6303612A, “Derivatives of hydroxyphenylsulfanylbenzoic and hydroxphenylsulfanylarylacetic acids” (Leciva, A.S., priority 1998, dated 2001).
